# US20250144047A1, “PHARMACEUTICAL COMPOSITION FOR PREVENTING, AMELIORATING, OR TREATING CANCER CONTAINING 8-PARADOL” (KDBIO CORP., priority 2022, published 2025)
# Tests used:
# AGS cells [1] = assay: Mito-tracker, ROS and Mito-SOX staining; assay type: cell-based, human
# Experimental: AGS cells (1×10^5 cells) were processed with the sample for 24 hours and then stained with a mitochondrial mito-tracker green kit (Thermo Fisher Scientific, Rockford, IL, USA). The stained cells were observed using the Leica DM IRB fluorescence microscope.
# AGS cells were cultured at a density of 1×10^5 cells for 24 hours. After the sample were processed with the cultured cells, intracellular oxidative stress and superoxide were confirmed by a cell ROS/superoxide detection assay kit (Abcam, Cambridge, MA, USA). The degree of fluorescence was evaluated using the Leica DM IRB fluorescence microscope.
# [2] = test system: AGS xenograft tumor tissue; assay: IHC staining of tumor tissue; assay type: in vivo; conditions: tumor tissue of administered mice
# Experimental: The tumor tissue was fixed with 10% formalin and embedded with paraffin. Immunohistochemical (IHC) staining was performed using a mouse and rabbit-specific HRP/DAB (ABC) detection IHC kit (Abcam, Cambridge, MA, USA). The tissue was observed through an optical microscope, and the presence of a specific protein in the tumor tissue was determined to be the presence of a brown yellow color. The results were evaluated using ImageJ software.
# [3] = design: species or system mice; conditions: mouse, in vivo, po
# Experimental: Male nude mice (CAnN.Cg-Foxn1-nu, 4 weeks old, 20 g to 22 g) were purchased from OrientBio (Seongnam, Republic of Korea). The mice were placed in a chamber with conditions maintained at 23° C. and 50% humidity with a period of 12 hours of light and 12 hours of darkness. All animal experiments were conducted according to the National Institutes of Health's Laboratory Animal Care and Use Guidelines (NIH Publications No. 8023, revised 1996) and the Kyung Hee University's Animal Care and Use Guidelines ([…]-441, approval data: Sep. 28, 2021). […] The control group was administered with only 0.9% of general saline during this period. Body weights and tumor volumes of the mice were measured daily in all mice during the study period. All mice were euthanized after the end of the experiments. Blood, liver, spleen, kidney, and tumor tissues were extracted and weighed. In order to obtain the protein of tumor tissue, a portion of the tissue was processed with RIPA buffer containing a protease inhibitor cocktail. Then, the expression degree of a specific protein (determined by Western blot) was determined.
# RAW 264.7 cells = assay type: cell-based
# Experimental: (§1) AGS cells were grown in RPMI medium containing 10% FBS and 1% PS. HEK293 and RAW264.7 cells were grown in DMEM medium containing 10% FBS and 1% PS under conditions of 37° C., 5% CO2 and 95% air.
# (§2) In order to evaluate toxicity to each cell, the sample was incubated in each cell (1×10^5 cells/well) cultured in the above manner for 24 hours, and then cytotoxicity to each cell was examined by using the MTT assay.
# [4] = test system: AGS xenograft tumor tissue; assay: Western blot of tumor tissue of xenograft mice; assay type: in vivo
# Experimental: For whole protein extraction, AGS cells were processed with samples at various concentrations for 24 hours. The cells were dissolved using Pierce™ RIPA buffer (Thermo Fisher Scientific, Rockford, IL, USA) together with protease inhibitor cocktail (GenDEPOT, TX, USA). The cell-dissolved solution formed in the above manner was centrifuged at 12,000 rpm for 20 minutes. The protein was loaded into a 10% SDS-PAGE gel using a protein gel electrophoresis chamber system and transferred to a PVDF membrane (Thermo Fisher Scientific, Rockford, IL, USA). A PBST solution containing 5% skim milk was used to block the membrane at 25° C. for 1 hour. Then, the membrane was incubated overnight at 4° C. with primary antibodies. Finally, the membrane was incubated with the secondary antibodies at 25° C. for 1 hour, and a protein band was detected using West-Q Pico ECL Solution (GenDEPOT, TX, USA). The results were quantified using ImageJ software.
# Each mouse was orally administered with 8-paradol and 5-FU once a day for a total of 16 days. The control group was administered with only 0.9% of general saline during this period. Body weights and tumor volumes of the mice were measured daily in all mice during the study period. All mice were euthanized after the end of the experiments. Blood, liver, spleen, kidney, and tumor tissues were extracted and weighed. In order to obtain the protein of tumor tissue, a portion of the tissue was processed with RIPA buffer containing a protease inhibitor cocktail. Then, the expression degree of a specific protein (determined by Western blot) was determined.
# HEK293 cells = assay type: cell-based, human
# Experimental: as §1, §2
# AGS cells [5] = assay: LC3 immunofluorescence staining; assay type: cell-based, human
# Experimental: AGS cells (1×10^5 cells) were cultured on 6-well plates and processed with samples for 24 hours. For cell fixation and permeation, 4% paraformaldehyde and 0.1% Triton X-100 were used, respectively. After blocking with 2% BSA for 1 hour, the cells were incubated with primary antibodies on LC3 for 3 hours at 25° C. Then, the cells were incubated with fluorescein isothiocyanate (FITC)-conjugated secondary antibodies (Abcam, Cambridge, MA, USA) for 30 minutes. Finally, fluorescence was captured and analyzed using the Leica fluorescence microscope and ImageJ software.
# AGS cells [6] = test system: AGS cells
# Experimental: as §1, §2
# [7] = 8-paradol in combination with CQ, compared to 8-paradol solely
smiles,measurement,setting,value
"CCCCCCCCCC(=O)CCc1ccc(O)c(OC)c1 [Purified Compound 3, 8-paradol]",Mito-SOX,AGS cells [1]; [7],partially reduced
same,segmented mitochondria,AGS cells [1]; [7],reduced
same,ROS and Mito-SOX production,AGS cells [1]; AGS cells,overproduction
same,mitochondrial morphology (Mito-tracker),"AGS cells [1]; AGS cells, 24 hours",damaged and fragmented mitochondrial morphology
same,density of LC3 and caspase-3 in tumor tissue,[2],increased
same,liver and kidney indices versus Con-T group,[3],did not exhibit a significant difference
same,body weight,[3]; 8 mg/kg,19.5 g
same,cytotoxicity to normal cells RAW 264.7,RAW 264.7 cells,did not express significant cytotoxicity
same,expression degrees of p62 and Bcl-2 proteins,[4]; tumor tissue,significantly decreased
same,"mitophagy-related proteins LC3, Pink1 and Parkin in tumor tissue",[4]; tumor tissue of processed mice,significantly increased in a dose-dependent manner
same,"apoptosis-related proteins Bax, Cytochrome-c, Cleaved-caspase-3/caspase-3 and Cleaved-caspase-9/caspase-9","[4]; tumor tissue, compared to control group",significantly increased
same,cytotoxicity to normal cells HEK293,HEK293 cells,did not express significant cytotoxicity
same,endogenous LC3 spots,AGS cells [5],increase
same,cytotoxicity to AGS cells,AGS cells [6],killed in a concentration-dependent manner
same,cell viability,"AGS cells [6]; 8-paradol and CQ in combination, compared to 8-paradol solely",significantly improved
same,IC50,"AGS cells [6]; read-out: IC50 on AGS cells, AGS cells, 24 hours, MTT assay",14.9 ± 1.65 µM
